Drawing on PubChem BioAssay (NCI), this text covers TGI for 15 molecules.

Test systems include ACHN renal; HCT-116 colon; MALME-3M melanoma; NCI-H460 lung; OVCAR-3 ovarian; OVCAR-8 ovarian; SN12C renal; SNB-75 CNS; SW-620 colon.
What all share (experiment): inhibition of tumour cell growth, NCI panel, 48 h

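Method: 48-hour compound exposure of cells in 96-well plates, five concentrations, linear interpolation of endpoints. TGI: concentration producing complete growth inhibition.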

On to `O=C(Nc1ccc(Cl)cc1Cl)C1C(=O)C(=O)N(c2ccc(Cl)cc2Cl)C1=O` (stereo unspecified), for which the TGI in the test on ACHN renal, with HCT-116 colon, with MALME-3M melanoma, in the test on NCI-H460 lung, in the test with OVCAR-3 ovarian and with OVCAR-8 ovarian was more than 100 µM in each case. Also, the TGI in the test with SN12C renal, in the test with SNB-75 CNS and with SW-620 colon was more than 100 µM in each case.
For `Cc1cccc(C)c1CO`, the TGI in the test with ACHN renal, in the test on HCT-116 colon, in the test with MALME-3M melanoma, with NCI-H460 lung, in the test on OVCAR-3 ovarian and with OVCAR-8 ovarian was more than 100 µM in each case. For the same molecule, the TGI with SN12C renal, with SNB-75 CNS and in the test on SW-620 colon was more than 100 µM throughout.
As for `CC(=O)OC1CCn2nnc(CO)c21` (stereo unspecified), the TGI with HCT-116 colon, with MALME-3M melanoma, with NCI-H460 lung, in the test on OVCAR-3 ovarian, with OVCAR-8 ovarian and in the test on SN12C renal was more than 100 µM each time. In addition, the TGI in the test with SNB-75 CNS and in the test with SW-620 colon was more than 100 µM in each case.
Consider `COc1ccc(C(=O)C(C(=O)CC(=O)Nc2cccc(C(F)(F)F)c2)c2ccc(OC)cc2)cc1` (stereo unspecified), for which the TGI with ACHN renal, in the test with HCT-116 colon, with MALME-3M melanoma, with NCI-H460 lung, in the test on OVCAR-3 ovarian and in the test on OVCAR-8 ovarian was more than 100 µM in each case. The results for the TGI in the test on SN12C renal, in the test with SNB-75 CNS and in the test with SW-620 colon were more than 100 µM, 85.5 µM and more than 100 µM, respectively.
As for `O=C1C=CC(=O)C12CCc1ccccc12`, the TGI with ACHN renal, with HCT-116 colon, in the test with MALME-3M melanoma, in the test on NCI-H460 lung, in the test on OVCAR-3 ovarian and in the test with OVCAR-8 ovarian was more than 100 µM throughout. The TGI in the test on SN12C renal, in the test with SNB-75 CNS and in the test with SW-620 colon was more than 100 µM throughout.
Turning to `Cn1nc(-c2ccccc2)c(C(=O)/C=C/c2ccc(Cl)cc2)c(N2CCCCC2)c1=O`, the TGI in the test with ACHN renal turned out to be 4.31 µM; with HCT-116 colon it was 3.47 µM; in the test with NCI-H460 lung, 7.4 µM; in the test with OVCAR-8 ovarian, 16.5 µM; with SN12C renal it was 20.5 µM; with SW-620 colon, 16.6 µM.
Regarding `COc1ccc(NC(=O)CC/C(CC(=O)C(C)(C)C)=N\NC(=O)C(=O)NN)cc1`, the TGI with ACHN renal, in the test with HCT-116 colon, in the test on MALME-3M melanoma, in the test on NCI-H460 lung, in the test on OVCAR-3 ovarian and with SN12C renal was more than 100 µM each time. For the same molecule, the TGI with SNB-75 CNS and in the test with SW-620 colon was more than 100 µM each time.
Consider `COC(=O)C1=C(O)c2cc(-c3ccccc3)c(-c3ccccc3)c(C#N)c2NC(=O)C1`, for which the TGI with ACHN renal, in the test with HCT-116 colon, with NCI-H460 lung, in the test on OVCAR-3 ovarian, in the test on OVCAR-8 ovarian and with SN12C renal was more than 100 µM throughout. Further, in the test on SNB-75 CNS, the TGI worked out at 93.3 µM.
As for `COc1cc(OC)c(SSCCCCS(=O)O)c(OC)c1`, the TGI with ACHN renal worked out at 31.8 µM; with HCT-116 colon it was 29.9 µM; with MALME-3M melanoma, 31 µM; with NCI-H460 lung, 38.1 µM; with OVCAR-3 ovarian, 28.6 µM; in the test on OVCAR-8 ovarian, 34.1 µM. In addition, the TGI with SN12C renal was determined as 33.6 µM; with SNB-75 CNS it was 25.4 µM; in the test on SW-620 colon, 28.4 µM.
For the molecule `CC1=C[C@]2(O)C(=O)[C@H](C)C[C@H]3[C@@H](CC[C@@](C)(O)/C=C\2C1=O)C3(C)C`, the TGI is 54.6 µM with ACHN renal; 30.9 µM with HCT-116 colon; 54.4 µM in the test with MALME-3M melanoma; more than 57.6 µM in the test with NCI-H460 lung; 38.1 µM in the test on OVCAR-3 ovarian; 46.9 µM in the test on OVCAR-8 ovarian. The figures for the TGI in the test on SN12C renal, in the test on SNB-75 CNS and in the test on SW-620 colon were 41.5 µM, more than 100 µM and 35.9 µM, respectively.
As for `COc1ccccc1C(O)(c1ccccc1)C(O)(c1ccccc1)c1ccccc1OC` (stereo unspecified), the TGI with ACHN renal, in the test on HCT-116 colon, in the test with MALME-3M melanoma, in the test with NCI-H460 lung, with OVCAR-3 ovarian and in the test with OVCAR-8 ovarian was more than 100 µM each time. Besides, the TGI in the test on SN12C renal, with SNB-75 CNS and with SW-620 colon was more than 100 µM each time.
Turning to `O=C(c1ccccc1)c1c(-c2ccccc2)sc2nc3ccccc3nc12`, the TGI in the test with ACHN renal, in the test with HCT-116 colon, in the test with MALME-3M melanoma, in the test on NCI-H460 lung, in the test on OVCAR-3 ovarian and with OVCAR-8 ovarian was more than 100 µM each time. The TGI in the test with SN12C renal is more than 100 µM; in the test with SNB-75 CNS, 85.6 µM; in the test on SW-620 colon it was more than 100 µM.
With `NC(=O)CCC(Nc1c2ccccc2nc2ccccc12)C(=O)O` (stereo unspecified), the TGI in the test on ACHN renal, in the test with HCT-116 colon, with MALME-3M melanoma, in the test with NCI-H460 lung, in the test with OVCAR-3 ovarian and in the test on OVCAR-8 ovarian was more than 100 µM each time. Further, the TGI in the test on SN12C renal, with SNB-75 CNS and with SW-620 colon was more than 100 µM throughout.
As to `O=C(O)Cc1cc(=O)[nH]c2c1/C(=N/O)CCC2`, the TGI with ACHN renal, with MALME-3M melanoma, with NCI-H460 lung, in the test on OVCAR-3 ovarian, in the test on OVCAR-8 ovarian and with SN12C renal was more than 100 µM in each case. The molecule also returned a TGI in the test on SW-620 colon of more than 100 µM.
Take `O=C(CCc1nnc2s/c(=C\c3ccc(Cl)c(Cl)c3)c(=O)n12)Nc1ccc(Cl)c(Cl)c1`: the TGI was more than 100 µM with ACHN renal; more than 100 µM in the test with HCT-116 colon; more than 100 µM in the test with MALME-3M melanoma; more than 100 µM in the test with NCI-H460 lung; more than 100 µM in the test with OVCAR-3 ovarian; 43.6 µM in the test with OVCAR-8 ovarian. The TGI in the test with SN12C renal, with SNB-75 CNS and in the test with SW-620 colon was more than 100 µM each time.
